Test system: P. aeruginosa (ATCC 19660)
Test: Antibiotic susceptibility (MIC, Microscan® MIC Plus Type 2 panel) with rBPI21/P123 and EDTA
Assay type: cell-based
Parameters: key to susceptibility interpretation of MIC (superscript): R: resistant; I: intermediate; S: susceptible
Conditions: for effect of EDTA added to the rBPI21/P123 formulation on susceptibility of the strain to the antibiotic: summary of Table 17
Description: In additional experiments, a BPI protein product, rBPI21, was formulated with an anti-bacterial activity enhancing poloxamer, specifically PLURONIC P123, and with various concentrations of EDTA, and was evaluated for its effect on the antibiotic susceptibility of a Pseudomonas aeruginosa (ATCC 19660). Antibiotic susceptibility was determined using Microscan® panel plates (Dade Microscan, West Sacramento, Calif.) that allow simultaneous determination of minimum inhibitory concentrations for a number of different antibiotics.
The antimicrobial susceptibility tests performed on the Microscan® panel plates are miniaturizations of the broth dilution susceptibility test. Antimicrobial agents are serially diluted in Mueller-Hinton broth (supplemented with calcium and magnesium, or with sodium chloride for oxacillin, or with thymidine phosphorylase for trimethoprim, sulfamethoxazole and trimethoprim/ sulfamethoxazole) to concentrations bridging the range of clinical interest. One well on the 96-well Microscan® plate is a growth control well that contains dehydrated broth only. The remaining wells contain dehydrated broth and antibiotic (or broth and biochemical reagent indicator), which is rehydrated to the desired concentration by inoculation of a standardized suspension of test organism. The chromogenic biochemical agent indicators are used to identify and characterize the species of bacteria based on detection of pH changes and substrate utilization. […] Gram-negative and gram positive organisms may be tested using any of the Microscan® panel plates (Microscan®, Dade Microscan, West Sacramento, Calif.). In these experiments with P. aeruginosa, the MIC Plus Type 2 panel plates were used. The concentrations of antibiotics tested in this panel plate are shown below in Table 16. The antibiotic susceptibility standards (interpretation of an MIC as resistant, intermediate or susceptible according to Microscan®'s NCCLS-derived standards) applicable to the gram-negative organisms that may be tested in each panel plate appear below in Table 16A.
For these experiments with P. aeruginosa, the following procedure was performed: The organism was streaked onto TSA plates (Remel, Lenexa, Kans.) and incubated for 18-24 hours overnight. Well-isolated A, colonies from the plates were emulsified in 3 ml of sterile Inoculum Water d(catalog no. B1015-2, MicrosScan® system, Dade Microscan, West Sacramento, Calif.) to a final turbidity equivalent to 0.5 McFarland Barium Sulfate standard. This cell suspension was vortexed for 2 to 3 seconds and 100 μl was transferred to glass tubes containing 25 ml of Inoculum Water with Pluronic-D (catalog no. B1015-7, MicroScan® system, Dade Microscan, West Sacramento, Calif.) (hereinafter “Pluronic Inoculum Water”), or 25 ml of Pluronic Inoculum Water into which rBPI21 in 0.2% PLURONIC P123, 0.002% TWEEN 80, 5mM sodium citrate, 150 mM NaCl (“rBPI21/P123”) had been diluted to 64 μg/ml rBPI21.
The 25 ml of this inoculum containing rBPI21 was mixed by inversion and poured into a tray. The inoculum was drawn up into a manual 96-well pipetting system (RENOK^− rehydrator-inoculator system, Dade Microscan, West Sacramento, Calif.) designed for use with the Microscan® panel plates, and 110 μl of the inoculum was delivered to each well of a Microscan® MIC Plus Type 2 panel plate. When added to the wells, this inoculum achieves a final bacterial concentration of 4×10^5 to 7×10^5 CFU/ml. The panel plates were then incubated at 35° C. for 15-24 hours and read visually for cell growth.
No growth was defined as a slight whiteness in the well or a clear broth. Growth appeared as turbidity which could take the form of a white haze throughout the well, a white button in the center of the well, or a fine granule growth throughout the well. All wells were read against a black indirectly lighted background. Visual results of the biochemical reactions were read into a database for bacterial identification.

[1] = rBPI21/P123 at 64 μg/ml rBPI21, With 0% EDTA
[2] = rBPI21/P123 at 64 μg/ml rBPI21, With 0.01% EDTA
[3] = rBPI21/P123 at 64 μg/ml rBPI21, With 0.05% EDTA
[4] = rBPI21/P123 at 64 μg/ml rBPI21, With 0.1% EDTA

Compound | Minimum Inhibitory Concentration of Antibiotic (Control (No BPI21)) [µg/mL] | susceptibility interpretation of MIC (superscript) (Control (No BPI21)) | Minimum Inhibitory Concentration of Antibiotic [1] [µg/mL] | susceptibility interpretation of MIC (superscript) [1] | Minimum Inhibitory Concentration of Antibiotic [2] [µg/mL] | susceptibility interpretation of MIC (superscript) [2] | Minimum Inhibitory Concentration of Antibiotic [3] [µg/mL] | susceptibility interpretation of MIC (superscript) [3] | Minimum Inhibitory Concentration of Antibiotic [4] [µg/mL] | susceptibility interpretation of MIC (superscript) [4] | effect of EDTA added to the rBPI21/P123 formulation on susceptibility of the strain to the antibiotic
CCN1CCN(C(=O)N[C@@H](C(=O)N[C@@H]2C(=O)N3C(C(=O)O)=C(CSc4nnnn4C)CS[C@H]23)c2ccc(O)cc2)C(=O)C1=O [Cefoperazone] | < 4 | S | < 4 | S | < 4 | S | < 4 | S | < 4 | S | –
C[C@@H](O)[C@H]1C(=O)N2C(C(=O)O)=C(SCCN=CN)C[C@H]12 [Imipenem] | 1 | S | 1 | S | < 0.5 | S | < 0.5 | S | < 0.5 | S | –
Cn1nnnc1SCC1=C(C(=O)O)N2C(=O)[C@@H](NC(=O)[C@H](O)c3ccccc3)[C@H]2SC1 [Cefamandole] | > 32 | R | > 32 | R | > 32 | R | > 32 | R | < 4 | S | reversing resistance
Ampicillin/Sulbactam [Amp/Sulbact] | > 32 | R | > 32 | R | < 1 | S | 16 | I | 16 | I | reversing resistance
CC1(C)S[C@@H]2[C@H](NC(=O)[C@H](NC(=O)N3CCN(S(C)(=O)=O)C3=O)c3ccccc3)C(=O)N2[C@H]1C(=O)O [Mezlocillin] | < 16 | S | < 16 | S | < 16 | S | < 16 | S | < 16 | S | –
O=C(O)C1=C(CSc2nnnn2CS(=O)(=O)O)CS[C@@H]2[C@H](NC(=O)[C@H](O)c3ccccc3)C(=O)N12 [Cefonicid] | > 16 | R | > 16 | R | < 2 | S | < 2 | S | < 2 | S | reversing resistance

Source: patent US6849598B1, “Therapeutic compositions comprising bactericidal/permeability-increasing (BPI) protein products” (XOMA, priority 1995, dated 2005)
